From patent US9138436B2, “Inhibitors of Bruton's tyrosine kinase” (PHARMACYCLICS LLC, priority 2011, dated 2015)

Biological target: Btk (Homo sapiens, UniProt Q06187)
Assay: Btk in vitro inhibitory activity, acellular kinase assay (TR-FRET)
Format: biochemical
Method: Btk kinase activity is determined using a time-resolved fluorescence resonance energy transfer (TR-FRET) methodology. Measurements are performed in a reaction volume of 50 μL using 96-well assay plates. Kinase enzyme, inhibitor, ATP (at the Km for the kinase), and 1 μM peptide substrate (Biotin-AVLESEEELYSSARQ-NH2) are incubated in a reaction buffer composed of 20 mM Tris, 50 mM NaCl, MgCl2 (5-25 mM depending on the kinase), MnCl2 (0-10 mM), 1 mM DTT, 0.1 mM EDTA, 0.01% bovine serum albumin, 0.005% Tween-20, and 10% DMSO at pH 7.4 for one hour. The reaction is quenched by the addition of 1.2 equivalents of EDTA (relative to divalent cation) in 25 μL of 1× Lance buffer (Perkin-Elmer). Streptavidin-APC (Perkin-Elmer) and Eu-labeled p-Tyr100 antibody (Perkin-Elmer) in 1× Lance buffer are added in a 25 μL volume to give final concentrations of 100 nM and 2.5 nM, respectively, and the mixture is allowed to incubate for one hour. The TR-FRET signal is measured on a multimode plate reader with an excitation wavelength (λEx) of 330 nm and detection wavelengths (λEm) of 615 and 665 nm. Activity is determined by the ratio of the fluorescence at 665 nm to that at 615 nm. For each compound, enzyme activity is measured at various concentrations of compound. Negative control reactions are performed in the absence of inhibitor in replicates of six, and two no-enzyme controls were used to determine baseline fluorescence levels. Inhibition constants, Ki(app), are obtained using the program BatchKi (Kuzmic et al. (2000), Anal. Biochem. 286:45-50). IC50s are obtained according to the equation: IC50={Ki(app)/(1+[ATP]/Km^ATP)}+[E]total/2;
For all kinases, [ATP]=Km^ATP, [Btk]total=0.5 nM and [Lck]total=6 nM.

Chain of Btk (Q06187 whole entry): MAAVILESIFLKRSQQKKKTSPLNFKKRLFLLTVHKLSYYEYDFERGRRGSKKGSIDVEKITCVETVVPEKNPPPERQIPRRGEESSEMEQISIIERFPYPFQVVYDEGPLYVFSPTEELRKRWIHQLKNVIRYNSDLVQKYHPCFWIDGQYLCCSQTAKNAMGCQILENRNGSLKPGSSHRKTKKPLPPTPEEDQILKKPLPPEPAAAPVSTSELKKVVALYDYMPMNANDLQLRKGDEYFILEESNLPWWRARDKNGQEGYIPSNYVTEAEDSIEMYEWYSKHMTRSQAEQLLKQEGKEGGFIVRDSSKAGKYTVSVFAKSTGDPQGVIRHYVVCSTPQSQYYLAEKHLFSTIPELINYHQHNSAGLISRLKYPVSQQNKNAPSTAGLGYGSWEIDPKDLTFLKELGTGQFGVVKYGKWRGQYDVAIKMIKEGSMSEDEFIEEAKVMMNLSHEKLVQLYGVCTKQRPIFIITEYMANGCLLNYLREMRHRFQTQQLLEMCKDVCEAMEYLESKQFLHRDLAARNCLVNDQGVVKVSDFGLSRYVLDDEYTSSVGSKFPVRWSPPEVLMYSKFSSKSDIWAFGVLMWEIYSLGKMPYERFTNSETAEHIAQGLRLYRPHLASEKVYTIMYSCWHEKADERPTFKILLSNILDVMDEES

SMILES | IC50
Nc1ncnc2c1c(-c1ccc(Oc3ccccc3)cc1)nn2[C@@H]1CCN(C(=O)/C=C/CN[C@@H]2CCOC2)C1 [Example 2c, (E)-1-((R)-3-(4-amino-3-(4-phenoxyphenyl)-1H-pyrazolo[3,4-d]pyrimidin-1-yl)pyrrolidin-1-yl)-4-((R)-tetrahydrofuran-3-ylamino)but-2-en-1-one] | < 0.1 µM
CN1CCC(NC/C=C/C(=O)N2CCC[C@@H](n3nc(-c4ccc(Oc5ccccc5)cc4)c4c(N)ncnc43)C2)CC1 [Example 2ao, (R,E)-1-(3-(4-amino-3-(4-phenoxyphenyl)-1H-pyrazolo[3,4-d]pyrimidin-1-yl)piperidin-1-yl)-4-(1-methylpiperidin-4-ylamino)but-2-en-1-one] | < 0.1 µM
Nc1ncnc2c1c(-c1ccc(Oc3ccccc3)cc1)nn2[C@@H]1CCCN(C(=O)/C=C/CNC2CCCCC2)C1 [Example 2ah, (R,E)-1-(3-(4-amino-3-(4-phenoxyphenyl)-1H-pyrazolo[3,4-d]pyrimidin-1-yl)piperidin-1-yl)-4-(cyclohexylamino)but-2-en-1-one] | < 0.1 µM
CN(C(=O)/C=C/CN(C)C1CC1)c1cccc(-n2cc(-c3ccc(Oc4ccccc4)cc3)c3c(N)ncnc32)c1 [Example 8a] | < 0.1 µM
CN(C/C=C/C(=O)N1CCC[C@@H](n2nc(-c3ccc(Oc4ccccc4)cc3)c3c(N)ncnc32)C1)[C@H]1CCOC1 [Example 2j, (E)-1-((R)-3-(4-amino-3-(4-phenoxyphenyl)-1H-pyrazolo[3,4-d]pyrimidin-1-yl)piperidin-1-yl)-4-(methyl((S)-tetrahydrofuran-3-yl)amino)but-2-en-1-one] | < 0.1 µM
CN(C/C=C/C(=O)N1CCC[C@@H](n2nc(-c3ccc(Oc4ccccc4)cc3)c3c(N)ncnc32)C1)C1CCOCC1 [Example 1q, (R,E)-1-(3-(4-amino-3-(4-phenoxyphenyl)-1H-pyrazolo[3,4-d]pyrimidin-1-yl)piperidin-1-yl)-4-(methyl(tetrahydro-2H-pyran-4-yl)amino)but-2-en-1-one] | < 0.1 µM
CC(C)N(C/C=C/C(=O)N1CCC[C@@H](n2nc(-c3ccc(Oc4ccccc4)cc3)c3c(N)ncnc32)C1)C1CC1 [Example 2t, (R,E)-1-(3-(4-amino-3-(4-phenoxyphenyl)-1H-pyrazolo[3,4-d]pyrimidin-1-yl)piperidin-1-yl)-4-(cyclopropyl(isopropyl)amino)but-2-en-1-one] | < 0.1 µM
Nc1ncnc2c1c(-c1ccc(Oc3ccccc3)cc1)nn2[C@@H]1CCN(C(=O)/C=C/CNC2COC2)C1 [Example 2g, (R,E)-1-(3-(4-amino-3-(4-phenoxyphenyl)-1H-pyrazolo[3,4-d]pyrimidin-1-yl)pyrrolidin-1-yl)-4-(oxetan-3-ylamino)but-2-en-1-one] | < 0.1 µM
Nc1ncnc2c1c(-c1ccc(Oc3ccccc3)cc1)nn2[C@@H]1CCN(C(=O)/C=C/CNC2CCOCC2)C1 [Example 1d, (R,E)-1-(3-(4-amino-3-(4-phenoxyphenyl)-1H-pyrazolo[3,4-d]pyrimidin-1-yl)pyrrolidin-1-yl)-4-(tetrahydro-2H-pyran-4-ylamino)but-2-en-1-one] | < 0.1 µM
Nc1ncnc2c1c(-c1ccc(Oc3ccccc3)cc1)nn2[C@@H]1CCN(C(=O)/C=C/CNc2ccccn2)C1 [Example 1s, (R,E)-1-(3-(4-amino-3-(4-phenoxyphenyl)-1H-pyrazolo[3,4-d]pyrimidin-1-yl)pyrrolidin-1-yl)-4-(pyridin-2-ylamino)but-2-en-1-one] | < 0.1 µM
Nc1ncnc2c1c(-c1ccc(Oc3ccccc3)cc1)nn2[C@@H]1CCCN(C(=O)/C=C/CN(C2CC2)C2CC2)C1 [Example 2r, (R,E)-1-(3-(4-amino-3-(4-phenoxyphenyl)-1H-pyrazolo[3,4-d]pyrimidin-1-yl)piperidin-1-yl)-4-(dicyclopropylamino)but-2-en-1-one] | < 0.1 µM
Nc1ncnc2c1c(-c1ccc(Oc3ccccc3)cc1)nn2[C@@H]1CCCN(C(=O)/C=C/CN[C@H]2CCOC2)C1 [Example 2k, (E)-1-((R)-3-(4-amino-3-(4-phenoxyphenyl)-1H-pyrazolo[3,4-d]pyrimidin-1-yl)piperidin-1-yl)-4-((S)-tetrahydrofuran-3-ylamino)but-2-en-1-one] | < 0.1 µM
Nc1ncnc2c1c(-c1ccc(Oc3ccccc3)cc1)nn2[C@@H]1CCCN(C(=O)/C=C/CNC2CCCC2)C1 [Example 2aj, (R,E)-1-(3-(4-amino-3-(4-phenoxyphenyl)-1H-pyrazolo[3,4-d]pyrimidin-1-yl)piperidin-1-yl)-4-(cyclopentylamino)but-2-en-1-one] | < 0.1 µM
CN(C/C=C/C(=O)N1CC(n2nc(-c3ccc(Oc4ccccc4)cc3)c3c(N)ncnc32)C1)C1CC1 [Example 5c, (E)-1-(3-(4-amino-3-(4-phenoxyphenyl)-1H-pyrazolo[3,4-d]pyrimidin-1-yl)azetidin-1-yl)-4-(cyclopropyl(methyl)amino)but-2-en-1-one] | < 0.1 µM
Nc1ncnc2c1c(-c1ccc(Oc3ccccc3)cc1)nn2[C@@H]1CCN(C(=O)/C=C/CN(C2CC2)C2CC2)C1 [Example 2a, (R,E)-1-(3-(4-amino-3-(4-phenoxyphenyl)-1H-pyrazolo[3,4-d]pyrimidin-1-yl)pyrrolidin-1-yl)-4-(dicyclopropylamino)but-2-en-1-one] | < 0.1 µM
Nc1ncnc2c1c(-c1ccc(Oc3ccccc3)cc1)nn2[C@@H]1CCCN(C(=O)/C=C/CNC2CC2)C1 [Example 2af, (R,E)-1-(3-(4-amino-3-(4-phenoxyphenyl)-1H-pyrazolo[3,4-d]pyrimidin-1-yl)piperidin-1-yl)-4-(cyclopropylamino)but-2-en-1-one] | < 0.1 µM
CN(C/C=C/C(=O)N1CC[C@@H](n2nc(-c3ccc(Oc4ccccc4)cc3)c3c(N)ncnc32)C1)C1CCC1 [Example 2aa, (R,E)-1-(3-(4-amino-3-(4-phenoxyphenyl)-1H-pyrazolo[3,4-d]pyrimidin-1-yl)pyrrolidin-1-yl)-4-(cyclobutyl(methyl)amino)but-2-en-1-one] | < 0.1 µM
CN(C/C=C/C(=O)N1CCC[C@@H](n2nc(-c3ccc(Oc4ccccc4)cc3)c3c(N)ncnc32)C1)C1CCCCC1 [Example 2ag, (R,E)-1-(3-(4-amino-3-(4-phenoxyphenyl)-1H-pyrazolo[3,4-d]pyrimidin-1-yl)piperidin-1-yl)-4-(cyclohexyl(methyl)amino)but-2-en-1-one] | < 0.1 µM
CN(C/C=C/C(=O)N1CC[C@@H](n2nc(-c3ccc(Oc4ccccc4)cc3)c3c(N)ncnc32)C1)[C@@H]1CCOC1 [Example 2b, (E)-1-((R)-3-(4-amino-3-(4-phenoxyphenyl)-1H-pyrazolo[3,4-d]pyrimidin-1-yl)pyrrolidin-1-yl)-4-(methyl((R)-tetrahydrofuran-3-yl)amino)but-2-en-1-one] | < 0.1 µM
CCN(C/C=C/C(=O)N1CC[C@@H](n2nc(-c3ccc(Oc4ccccc4)cc3)c3c(N)ncnc32)C1)C1CCC1 [Example 2ap, (R,E)-1-(3-(4-amino-3-(4-phenoxyphenyl)-1H-pyrazolo[3,4-d]pyrimidin-1-yl)pyrrolidin-1-yl)-4-(cyclobutyl(ethyl)amino)but-2-en-1-one] | < 0.1 µM
CN(C/C=C/C(=O)N1CC[C@@H](n2nc(-c3ccc(Oc4ccccc4)cc3)c3c(N)ncnc32)C1)C1CCCC1 [Example 2y, (R,E)-1-(3-(4-amino-3-(4-phenoxyphenyl)-1H-pyrazolo[3,4-d]pyrimidin-1-yl)pyrrolidin-1-yl)-4-(cyclopentyl(methyl)amino)but-2-en-1-one] | < 0.1 µM
CN(C/C=C/C(=O)Nc1cccc(-n2nc(-c3ccc(Oc4ccccc4)cc3)c3c(N)ncnc32)c1)C1CC1 [Example 7f, (E)-N-(3-(4-amino-3-(4-phenoxyphenyl)-1H-pyrazolo[3,4-d]pyrimidin-1-yl)phenyl)-4-(cyclopropyl(methyl)amino)but-2-enamide] | < 0.1 µM
CN(C/C=C/C(=O)N1CC[C@@H](n2nc(-c3ccc(Oc4ccccc4)cc3)c3c(N)ncnc32)C1)C1CCCCC1 [Example 2w, (R,E)-1-(3-(4-amino-3-(4-phenoxyphenyl)-1H-pyrazolo[3,4-d]pyrimidin-1-yl)pyrrolidin-1-yl)-4-(cyclohexyl(methyl)amino)but-2-en-1-one] | < 0.1 µM
CN(C/C=C/C(=O)N1CC[C@@H](n2cc(-c3ccc(Oc4ccccc4)cc3)c3c(N)ncnc32)C1)C1CC1 [Example 6b, (R,E)-1-(3-(4-amino-5-(4-phenoxyphenyl)-7H-pyrrolo[2,3-d]pyrimidin-7-yl)pyrrolidin-1-yl)-4-(cyclopropyl(methyl)amino)but-2-en-1-one] | < 0.1 µM
Nc1ncnc2c1c(-c1ccc(Oc3ccccc3)cc1)nn2[C@@H]1CCN(C(=O)/C=C/CNC2CCC2)C1 [Example 2ab, (R,E)-1-(3-(4-amino-3-(4-phenoxyphenyl)-1H-pyrazolo[3,4-d]pyrimidin-1-yl)pyrrolidin-1-yl)-4-(cyclobutylamino)but-2-en-1-one] | < 0.1 µM
Nc1ncnc2c1c(-c1ccc(Oc3ccccc3)cc1)nn2[C@@H]1CCCN(C(=O)/C=C/CNC2COC2)C1 [Example 2n, (R,E)-1-(3-(4-amino-3-(4-phenoxyphenyl)-1H-pyrazolo[3,4-d]pyrimidin-1-yl)piperidin-1-yl)-4-(oxetan-3-ylamino)but-2-en-1-one] | < 0.1 µM
